Key:
Assay in all cases: AUC of viability dose-response curve (% viability x log10 dose units); higher = less sensitive
Conditions in all cases: 48 h
SEM cells = test system: SEM cells
In short: (§1)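 Leukemia cells adapted to each medium (500 or 1000 cells/well, 1536-well plates) were exposed to library compounds in DMSO for 48 h at 37°C at 11 threefold doses, 47 μM to 0.79 nM. Luminescence by CellTiter-Glo One was normalised per plate to DMSO and cell-free wells, then fitted with a four-parameter log-logistic curve on log10 dose. Curves above full viability were scaled and quality-control failures removed before area under the curve was integrated by trapezoidal rule.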

NOMO1 = test system: NOMO1
In short: as §1

P12-Ichikawa = test system: P12-Ichikawa
In short: as §1

[1] = RPMI 5 mM glucose + 10% dialyzed FBS

Row | SMILES | AUC of viability dose-response curve (SEM cells; HPLM + 10% dialyzed FBS) | AUC of viability dose-response curve (SEM cells; RPMI 5 mM glucose + 10% FBS) | AUC of viability dose-response curve (SEM cells; [1]) | AUC of viability dose-response curve (NOMO1; HPLM + 10% dialyzed FBS) | AUC of viability dose-response curve (NOMO1; RPMI 5 mM glucose + 10% FBS) | AUC of viability dose-response curve (NOMO1; [1]) | AUC of viability dose-response curve (P12-Ichikawa; HPLM + 10% dialyzed FBS) | AUC of viability dose-response curve (P12-Ichikawa; RPMI 5 mM glucose + 10% FBS) | AUC of viability dose-response curve (P12-Ichikawa; [1])
1 | CC(=O)OC[C@@H]1O[C@H]([C@H](OC(C)=O)[C@@H]1OC(C)=O)N2\C=C/C(=O)NC2=O | 448 | 462 | 456 | 429 | 440 | 443 | 461 | 444 | 457
2 | C[C@]1(O)CC(C1)C2=NC(=C3[N]2C=CN=C3N)C4=CC5=C(C=C4)C=CC(=N5)C6=CC=CC=C6 (centres undefined) |  |  |  | 321 | 319 | 301 | 396 | 358 | 366
3 | Cc1ccc2nc(NCCN)c3ncc(C)n3c2c1 | 413 | 440 | 430 | 446 | 422 | 437 | 458 | 455 | 460
4 | CC(C)(N)c1ccc(-c2nc3ccccc3nc2-c2ccccc2)cc1 | 196 | 145 | 181 | 177 | 220 | 241 | 168 | 224 | 219
5 | Cc1cc(Nc2cc(N3CCN(C)CC3)nc(/C=C/c3ccccc3)n2)n[nH]1 | 264 | 261 | 255 | 340 | 334 | 345 | 320 | 333 | 333
6 | O=C(O)CCCCCC(=O)NN=C1CCCC1 | 456 | 468 | 461 | 433 | 414 | 453 | 467 | 468 | 447
7 | CCOC(=O)N1CCN(/[N+]([O-])=N/Oc2cc(O/N=[N+](\[O-])N3CCN(C(=O)OCC)CC3)c([N+](=O)[O-])cc2[N+](=O)[O-])CC1 | 449 | 464 | 474 | 476 | 460 | 463 | 460 | 476 | 450
8 | CCCN[C@H]1CCc2nc(N)sc2C1 | 453 | 442 | 442 | 447 | 434 | 466 | 462 | 430 | 450
9 | COC1=CC=C(C=C1)/C2=C(O)/C(=O)C3=C(O)C=C(O)C(=C3O2)CC=C(C)C | 457 | 434 | 467 | 464 | 454 | 464 | 467 | 473 | 468
10 | COc1cc(C(=O)NC2CCN(C)CC2)ccc1Nc1ncc2c(n1)N(C1CCCC1)CCC(=O)N2C(C)C |  |  |  | 432 | 442 | 457 | 406 | 410 | 411
11 | C=CC(=O)Nc1cc2c(Nc3ccc(F)c(Cl)c3)ncnc2cc1C#CC(C)(C)N1CCN(C)CC1 | 360 | 357 | 363 | 382 | 395 | 387 | 395 | 395 | 383
12 | OC(=O)\C1=C\N(C2CC2)C3=CC(=C(F)C=C3C1=O)N4CCNCC4 |  |  |  | 404 | 428 | 422 | 451 | 456 | 455
13 | CCC(C)CCCCC(=O)N[C@@H](CCN)C(=O)NC(C(=O)N[C@H](CCN)C(=O)N[C@@H]1CCNC(=O)C([C@@H](C)O)NC(=O)[C@@H](CCN)NC(=O)[C@@H](CCN)NC(=O)[C@@H](CC(C)C)NC(=O)[C@H](Cc2ccccc2)NC(=O)[C@H](CCN)NC1=O)[C@@H](C)O (some centres undefined) | 429 | 471 | 434 | 457 | 451 | 470 | 461 | 457 | 445
14 | NC(=O)c1cnccn1 | 462 | 461 | 465 | 464 | 471 | 457 | 463 | 465 | 461
15 | CN1C(=O)c2sccc2N(C)c2nc(Nc3ccc([S+](N)(=O)[O-])cc3)ncc21 | 345 | 348 | 348 | 379 | 390 | 378 | 343 | 349 | 355
16 | C[C@H](NC(=O)Cc1cc(F)cc(F)c1)C(=O)N[C@H](C(=O)OC(C)(C)C)c1ccccc1 | 418 | 456 | 415 | 448 | 397 | 432 | 432 | 428 | 390
17 | NC1=NC(=O)N2CC12 (centres undefined) | 312 | 314 | 281 | 367 | 350 | 352 | 400 | 369 | 349
18 | c1cc(-c2cnn3cc(-c4ccc(OCCN5CCCCC5)cc4)cnc23)ccn1 |  |  |  | 388 | 397 | 394 | 416 | 395 | 406
19 | CCCCCCNC(=O)N1\C=C(F)/C(=O)NC1=O | 466 | 458 | 435 | 451 | 468 | 443 | 458 | 459 | 456
20 | NCCCC(N)(C(=O)O)C(F)F (centres undefined) | 446 | 460 | 461 | 454 | 443 | 461 | 462 | 448 | 449
21 | C[S+](=O)([O-])Oc1ccc2c(NC(N)=O)c(C(=O)c3ccc(Cl)cc3Cl)oc2c1 | 433 | 442 | 464 | 449 | 460 | 462 | 455 | 463 | 466
22 | CN(C)c1nc(Cc2ccc(NC(=O)c3ccc(C(F)(F)F)cc3)cc2)nc(N(C)C)c1CC(=O)O | 473 | 445 | 470 | 452 | 432 | 451 | 471 | 465 | 461
23 | Cc1nc(-c2ccc(OCC(C)C)c(C#N)c2)sc1C(=O)O | 475 | 472 | 458 | 461 | 471 | 468 | 467 | 424 | 437
24 | CCOC(=O)c1c(C)n(C)c2ccc(O)cc12 | 447 | 462 | 463 | 468 | 455 | 461 | 456 | 436 | 443
25 | CN1C(=O)/C(=C(NC2=CC=C(I)C=C2F)\C3=C1\N=C/N(C[C@@H](O)CO)C3=O)F | 339 | 330 | 295 | 229 | 231 | 216 | 381 | 342 | 369

Row | SMILES | AUC of viability dose-response curve (SEM cells; HPLM + 10% dialyzed FBS) | AUC of viability dose-response curve (SEM cells; RPMI 5 mM glucose + 10% FBS) | AUC of viability dose-response curve (SEM cells; [1]) | AUC of viability dose-response curve (NOMO1; HPLM + 10% dialyzed FBS) | AUC of viability dose-response curve (NOMO1; RPMI 5 mM glucose + 10% FBS) | AUC of viability dose-response curve (NOMO1; [1]) | AUC of viability dose-response curve (P12-Ichikawa; HPLM + 10% dialyzed FBS) | AUC of viability dose-response curve (P12-Ichikawa; RPMI 5 mM glucose + 10% FBS) | AUC of viability dose-response curve (P12-Ichikawa; [1])
26 | CNc1nc(-c2ccc3c(N)n[nH]c3c2)cc(N2C[C@@H](C(=O)NC3CCCCC3)CC[C@H]2C)n1 |  |  |  | 350 | 359 | 364 | 395 | 319 | 336
27 | CCNC(=O)CCC/C=C\C[C@@H]1[C@@H](/C=C/C(O)CCc2ccccc2)[C@@H](O)C[C@@H]1O (some centres undefined) | 466 | 473 | 461 | 460 | 456 | 459 | 448 | 453 | 431
28 | Nc1ccc(C(=O)c2cc3c(ccc4ccccc43)[nH]2)cc1 | 374 | 373 | 361 | 412 | 425 | 417 | 348 | 359 | 359
29 | COc1ccc(F)c(F)c1C(=O)c1cnc(NC2CCN([S+](C)(=O)[O-])CC2)nc1N | 351 | 344 | 381 | 367 | 380 | 380 | 401 | 358 | 360
30 | C[C@@H]1CC[C@@]2(CC[C@]3(C)\C(=C/C[C@@H]4[C@@]5(C)CC[C@H](O)C(C)(C)[C@@H]5CC[C@@]34C)[C@@H]2[C@H]1C)C(O)=O | 465 | 467 | 456 | 477 | 461 | 468 | 462 | 469 | 458
31 | Nc1n[nH]c2nnc(-c3c(-c4ccccc4)nn4ccccc34)cc12 | 446 | 449 | 455 | 378 | 354 | 379 | 404 | 403 | 429
32 | Cc1cc(Nc2ncc3c(n2)N(C)C(=O)N(c2cc(NC(=O)c4cccc(C(F)(F)F)c4)ccc2C)C3)n(C)n1 | 293 | 278 | 277 | 341 | 362 | 357 | 399 | 374 | 381
33 | CCn1nnc2c(N3CCOCC3)nc(-c3ccc(NC(=O)Nc4ccc(C(=O)N5CCN(C)CC5)cc4)cc3)nc21 | 330 | 296 | 337 | 309 | 395 | 341 | 391 | 353 | 352
34 | OC[C@H]1O[C@H](C[C@@H]1O)N2/C=C(C(=O)NC2=O)/C(F)(F)F | 317 | 407 | 350 | 356 | 449 | 391 | 317 | 375 | 371
35 | Oc1cc(-c2nc(-c3ccccc3)[nH]c2-c2ccncc2)ccc1Cl | 464 | 461 | 467 | 394 | 451 | 420 | 438 | 424 | 419
36 | COc1cc(NCc2ccc3nc(N)nc(N)c3c2C)cc(OC)c1OC | 345 | 370 | 336 | 347 | 397 | 380 | 346 | 383 | 350
37 | CNC[C@H](O)[C@@H](O)[C@H](O)[C@H](O)CO |  |  |  | 432 | 473 | 470 | 471 | 471 | 474
38 | C=CC(=O)Nc1cccc(Sc2nc(Nc3ccc(N4CCN(C)CC4)cc3)ncc2Cl)c1 |  |  |  | 454 | 455 | 456 |  |  | 
39 | CCCOc1ccc(C(=O)OCCN(CC)CC)cc1N |  |  |  | 465 | 468 | 464 | 453 | 448 | 446
40 | COCCn1c2c([n+](Cc3cnccn3)c1C)C(=O)c1ccccc1C2=O | 161 | 209 | 189 | 194 | 232 | 223 | 251 | 247 | 244
41 | Oc1ccc(OCc2ccccc2)cc1 |  |  |  | 441 | 444 | 457 | 435 | 420 | 407
42 | O=C(c1cncc(Br)c1)N1CCC(N2CCCC2)CC1 | 469 | 464 | 463 | 438 | 450 | 450 | 463 | 463 | 459
43 | CC1(C)SCCN([S+](=O)([O-])c2ccc(OCC#CCO)cc2)[C@H]1C(=O)NO | 449 | 413 | 439 | 462 | 437 | 450 | 456 | 454 | 438
44 | COc1c(Cl)cc2c([nH]c3cnccc32)c1NC(=O)c1cccnc1C | 469 | 405 | 465 | 464 | 473 | 471 | 462 | 468 | 454
45 | CC1(C)CC\C2=C(/O1)C3=C(C=CC=C3)C(=O)C2=O | 437 | 436 | 401 | 449 | 446 | 451 | 449 | 447 | 450
46 | C[C@]12CCC3c4ccc(O)cc4CCC3C1CCC2=O (some centres undefined) |  |  |  | 429 | 424 | 420 | 441 | 447 | 395
47 | CCNC(=O)Nc1ccc(Oc2ncnc(N)c2/C=N/OC)cc1Cl |  |  |  | 460 | 459 | 441 | 477 | 458 | 471
48 | CCN(CC)CCNC(=O)c1c(C)[nH]c(/C=C2\C(=O)Nc3ccc(F)cc32)c1C |  |  |  | 257 | 265 | 271 | 248 | 266 | 257
49 | CNC(=O)c1ccc2c(c1)NC(=O)/C2=C(\Nc1cccc(CN(C)C)c1)c1ccccc1 | 318 | 303 | 302 | 400 | 399 | 380 |  |  | 
